Measurements published in patent US7932390B2, “Substituted thieno[3,2-C]pyridine carboxylic acid derivatives” (Hoffman-La Roche Inc., priority 2006, dated 2011).
Counter-ions that a name gives are not always drawn.

Experiments:
Assay type in all cases: biochemical
[1] = molecular target: T1, c-Raf (Homo sapiens, UniProt P04049); experiment: c-Raf HTRF assay with 6H-MEK as substrate (dose response); conditions: cloned human c-Raf with EE-tag
T1 construct: made in house; host or cells: baculovirus, High-5 (Hi5) insect cells, co-infected with FLAG-vSrc virus
T1 sequence (P04049 whole entry): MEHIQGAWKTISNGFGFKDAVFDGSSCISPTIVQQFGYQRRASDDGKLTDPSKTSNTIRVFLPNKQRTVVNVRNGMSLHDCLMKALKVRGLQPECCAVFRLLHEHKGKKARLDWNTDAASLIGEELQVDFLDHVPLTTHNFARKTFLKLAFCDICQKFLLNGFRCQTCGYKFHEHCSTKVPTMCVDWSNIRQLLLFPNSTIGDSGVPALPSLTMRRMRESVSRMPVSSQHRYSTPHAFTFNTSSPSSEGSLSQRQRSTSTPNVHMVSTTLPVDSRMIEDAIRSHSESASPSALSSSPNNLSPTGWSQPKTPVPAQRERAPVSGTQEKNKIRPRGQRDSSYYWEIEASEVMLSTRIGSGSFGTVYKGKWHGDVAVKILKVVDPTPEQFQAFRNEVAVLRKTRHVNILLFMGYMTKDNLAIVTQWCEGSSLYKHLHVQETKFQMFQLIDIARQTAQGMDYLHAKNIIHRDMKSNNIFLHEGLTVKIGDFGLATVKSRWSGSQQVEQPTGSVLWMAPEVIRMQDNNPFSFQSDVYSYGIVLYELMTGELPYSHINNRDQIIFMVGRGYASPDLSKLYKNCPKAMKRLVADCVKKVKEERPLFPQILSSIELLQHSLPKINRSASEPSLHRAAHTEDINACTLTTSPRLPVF
Method: (§1) Kinase Enzyme Inhibition Assay (IC50)
c-Raf HTRF Assay with 6H-MEK as Substrate (Dose Response)
The assay utilizes 6H-MEK as the substrate. Upon c-Raf phosphorylation, phosphorylated 6H-MEK is detected with rabbit anti-phospho-MEK1/2, Eu-labeled anti-rabbit, and APC-labeled anti-6H antibodies.
(§2) Reagents and Instruments:
Enzyme: cloned human c-Raf with EE-tag; phosphorylated (co-expressed with v-src-FLAG in baculovirus Hi5 cells), 0.2 mg/mL (2.74 μM assuming a molecular weight of 73 kD) stored at −15° C.
Substrate: WT full-length 6H-MEK, 4.94 mg/mL (154.4 μM assuming a MW of 32 kD) stored at −15° C.
(§3) Antibodies: Rabbit (α-P-(Ser 217/221)-MEK-1/2 Ab (from Cell Signaling, Cat. #9121B, Lot 14); Eu-(α-rabbit IgG (from Wallac, Cat. # AD0083, Lot 318663, 710 ug/mL, 4.4 μM); (α-6H-SureLight-APC (from Martek, Cat. #AD0059H, Lot E012AB01, 3.03 μM).
(§4) Reader: Envision from PerkinElmer, HTRF reading mode with 412 mirror
(§5) Assay Plate Matrix all-black polypropylene plates (Cat. #4344)
(§6) Others: Weidman 384 polypropylene plates (REMP) for compound plate.
(§7) (1) Prepare Kinase Assay Buffer (KAB): 50 mM HEPES (HyClone) pH7, 10 mM MgCl2, 1 mM DTT, 0.1 mM […], and 0.3 mg/ml BSA.
(§8) (2) Prepare 6H-MEK (150 nM) in KAB. Add 12 μl/well to the assay plate.
(§9) (3) Prepare ATP (66 μM) in KAB.
(§10) (4) Dilute compounds to 2.4 mM and any positive controls to 480 μM in DMSO. Perform 10-point 3× dilution in DMSO. Withdraw 2.5 μl/well of DMSO solution and add to 27.5 μl/well ATP solution in (3).
(§11) (5) Mix, then add 6 μl/well of solution in (4) to the assay plate for a DMSO concentration of 2.1% during MEK phosphorylation.
(6) Prepare c-Raf (12 nM) in KAB.
(7) Add 6 μl/well of KAB in columns 1-2 and 6 μl/well of c-Raf in columns 3-24.
(§12) (8) Incubate at 37° C. for 30 min.
(9) Prepare rabbit (α-P-(Ser 217/221)-MEK-1/2 Ab (1:240 from stock) in AB1: 50 mM HEPES pH7, 0.2 mg/ml BSA, and 43 mM EDTA.
(§13) (10) To stop reaction, add 6 μl/well of solution from (9) to the assay plate and incubate at 37° C. for 30 min.
(11) Prepare Eu-(α-rabbit IgG (9 nM) and (α-6H-SureLight-APC (120 nM) in AB2: 50 mM HEPES pH7 and 0.2 mg/ml BSA.
(§14) (12) Add 6 μl/well of solution from (11) to the assay plate.
(§15) (13) For determining the spectrum cross talk factor, prepare 2 samples following steps (1) to (10). For the blank sample, add 6 μl/well of AB2. For the cross talk factor sample, add 6 μl/well of Eu-anti rabbit IgG (9 nM).
(§16) (14) Incubate at room temperature for 1.5 hours.
(§17) (15) Read HTRF signals at 615 nm and 665 nm on the Envision. Normalize HTRF signals after spectrum cross-talk correction.
Expression and Purification of c-Raf
N terminal EE-tagged c-Raf was expressed in High-5 cells. A five liter culture was co-transfected with virus for EE-c-Raf and FLAG-vSrc at a ratio of 1:2 and harvested after 48 hours. The cell pellet was lysed in TBS containing 5 mM EDTA, 50 mM KF, 20 mM Na pyrophosphate, 20 mM β-glycerolphsphate, 0.5 mM Na VO3, 1% NP-40 (w/v) and Complete Protease Tablets. The lysate was centrifuged at 20,000×g for 1 hour. The supernatant was incubated with 8 ml of anti-EE tag-Protein G Sepharose for 2 hours at 4° C. The resin was then washed with 30 volumes of the above buffer. The c-Raf protein was eluted by incubation with the above buffer containing 100 mg/ml of EE peptide for 1 hour at 4° C. Protein was concentrated using an Amicon Stir Cell with an YM10 membrane. The concentrated protein was dialyzed against TBS containing 1 mM DTT and 30% Glycerol. Protein concentration was determined by the BioRad DC method.
E. coli cells containing the plasmid for the expression of 6H-MEK1 (62-393) were grown in Rich Media and induced with 1 mM IPTG for 24 hours at 22° C. The cell pellet was resuspent in 50 mM potassium phosphate buffer, pH 8.0, 300 mM NaCl, 5 mM MgCl2, 10 mM CHAPS, 2 mM TCEP, and Complete Protease Inhibitor Tablets. Cells were disrupted by sonication. The lysate was cleared by centrifugation at 13,000×g for 45 minutes. […]

[2] = molecular target: T2, b-Raf Wild-Type (Homo sapiens, UniProt P15056); experiment: b-Raf wild-type HTRF assay with 6H-MEK as substrate (dose response); conditions: recombinant human b-Raf wild-type residues 416-end, GST-tag
T2 construct: recombinant human b-Raf residues 416-end; purchased Upstate 14-530M; host or cells: baculovirus, Sf21 insect cells
T2 sequence (P15056 416-766 limits assumed): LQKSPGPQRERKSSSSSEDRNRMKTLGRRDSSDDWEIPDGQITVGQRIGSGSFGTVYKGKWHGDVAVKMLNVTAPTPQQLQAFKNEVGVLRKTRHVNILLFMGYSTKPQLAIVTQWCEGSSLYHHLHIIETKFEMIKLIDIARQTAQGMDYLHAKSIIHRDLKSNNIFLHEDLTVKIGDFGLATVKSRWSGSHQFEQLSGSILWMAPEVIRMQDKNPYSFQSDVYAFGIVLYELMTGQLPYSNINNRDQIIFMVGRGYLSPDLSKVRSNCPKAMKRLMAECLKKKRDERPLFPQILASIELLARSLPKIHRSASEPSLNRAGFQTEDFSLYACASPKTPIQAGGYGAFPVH
Method: as §1
b-Raf Wild-Type HTRF Assay with 6H-MEK as Substrate (Dose Response)
The assay utilizes 6H-MEK as the substrate. Upon b-Raf WT phosphorylation, phosphorylated 6H-MEK is detected with rabbit anti-phospho-MEK1/2, Eu-labeled anti-rabbit, and APC-labeled anti-6H antibodies.
as §2
Enzyme: recombinant human b-Raf residues 416-end with N-terminal GST-tag from Upstate; (expressed by baculovirus in Sf21 insect cells), 0.26 mg/mL (3.87 μM assuming a molecular weight of 67.2 kD) Cat. #14-530M, Lot #25502AU, stored at −80° C.
Substrate: WT full-length 6H-MEK from C. Belunis (5126104), 4.94 mg/mL (154.4 μM assuming a MW of 32 kD) stored at −15° C.
Antibodies: Rabbit (α-P-(Ser 217/221)-MEK-1/2 Ab (from Cell Signaling, Cat. #9121B, Lot 14); Eu-(α-rabbit IgG (from Wallac, Cat. #AD0083, Lot 318663, 710 ug/mL, 4.4 μM); (α-6H-SureLight-APC (from Martek, Cat. #AD0059H, Lot E012AB01, 3.03 μM).
as §4, §5, §6, §7, §8, §9, §10, §11
(6) Prepare b-Raf WT ([…]) in KAB.
(7) Add 6 μl/well of KAB in columns 1-2 and 6 μl/well of b-Raf WT in columns 3-24.
as §12
(9) Prepare rabbit (α-P-(Ser 217/221)-MEK-1/2 Ab (1:200 from stock) in AB1: 50 mM HEPES pH7, 0.2 mg/ml BSA, and 43 mM EDTA.
as §13
(11) Prepare Eu-(α-rabbit IgG (9 nM) and (α-6H-SureLight-APC (180 nM) in AB2: 50 mM HEPES pH7 and 0.2 mg/ml BSA.
as §14, §15, §16, §17

[3] = molecular target: T3, b-Raf V600E Mutant (Homo sapiens, UniProt P15056, V600E); experiment: b-Raf V600E mutant HTRF assay with 6H-MEK as substrate (dose response); conditions: recombinant human b-Raf residues 416-end with V600E mutation, GST-tag
T3 construct: recombinant human b-Raf residues 416-end containing a V600E mutation; purchased Upstate 14-5M; host or cells: baculovirus, Sf21 insect cells
T3 sequence (P15056 416-766 V600E): as the sequence (P15056 416-766 limits assumed) above, with V185E counted along it
From the text: as §1
b-Raf V600E Mutant HTRF Assay with 6H-MEK as Substrate (Dose Response)
The assay utilizes 6H-MEK as the substrate. Upon b-Raf V600E phosphorylation, phosphorylated 6H-MEK is detected with rabbit anti-phospho-MEK1/2, Eu-labeled anti-rabbit, and APC-labeled anti-6H antibodies.
as §2
Enzyme: recombinant human b-Raf residues 416-end containing a V600E mutation with N-terminal GST-tag from Upstate; (expressed by baculovirus in Sf21 insect cells), 0.26 mg/mL ([…] assuming a molecular weight of 67.3 kD) Cat. #14-5M, Lot #25633AU, stored at −80° C.
Substrate: WT full-length 6H-MEK from C. Belunis (May 26, 2004), 4.94 mg/mL (154.4 μM assuming a MW of 32 kD) stored at −15° C.
as §3, §4, §5, §6, §7, §8, §9
(4) Dilute compounds to 2.4 mM and positive controls to 480 μM in DMSO. Perform 10-point 3× dilution in DMSO. Withdraw 2.5 μl/well of DMSO solution and add to 27.5 μl/well ATP solution in (3).
as §11
(6) Prepare b-Raf V600E ([…]) in KAB.
(7) Add 6 μl/well of KAB in columns 1-2 and 6 μl/well of b-Raf V600E in columns 3-24.
as §12
(9) Prepare rabbit α-P-(Ser 217/221)-MEK-1/2 Ab (1:200 from stock) in AB1: 50 mM HEPES pH7, 0.2 mg/ml BSA, and 43 mM EDTA.
as §13
(11) Prepare Eu-α-rabbit IgG (9 nM) and α-6H-SureLight-APC (180 nM) in AB2: 50 mM HEPES pH7 and 0.2 mg/ml BSA.
as §14, §15, §16, §17

Compound	IC50 [1]	IC50 [2]	IC50 [3]
CCOC(=O)c1cnc(N)c2c(COc3cccc(-c4nnc(C)o4)c3)csc12 [Example 9, 4-Amino-3-[3-(5-methyl-[1,3,4]oxadiazol-2-yl)-phenoxymethyl]-thieno[3,2-c]pyridine-7-carboxylic acid ethyl ester]	5420 nM	12700 nM	997 nM
Cc1nnc(-c2cccc(OCc3csc4c(C(=O)NCCO)cnc(N)c34)c2)o1 [Example 10, 4-Amino-3-[3-(5-methyl-[1,3,4]oxadiazol-2-yl)-phenoxymethyl]-thieno[3,2-c]pyridine-7-carboxylic acid (2-hydroxy-ethyl)-amide]	768 nM	1300 nM	327 nM
Cc1nnc(-c2ccc(C)c(OCc3csc4c(C(=O)NCCO)cnc(N)c34)c2)o1 [Example 14, 4-Amino-3-[2-methyl-5-(5-methyl-[1,3,4]oxadiazol-2-yl)-phenoxymethyl]-thieno[3,2-c]pyridine-7-carboxylic acid (2-hydroxy-ethyl)-amide trifluoro-acetic acid salt]	41 nM	117 nM	17 nM
Cc1ccc(-c2cn(C)nn2)cc1OCc1csc2c(C(=O)NCCO)cnc(N)c12 [Example 24, 4-Amino-3-[2-methyl-5-(1-methyl-1H-[1,2,3]triazol-4-yl)-phenoxymethyl]-thieno[3,2-c]pyridine-7-carboxylic acid (2-hydroxy-ethyl)-amide]	11.9 nM	45 nM	> 50000 nM
COc1ccc(Cn2nnc(-c3cccc(OCc4csc5c(C(=O)NCCO)cnc(N)c45)c3)n2)cc1 [Example 29, 4-Amino-3-{3-[2-(4-methoxy-benzyl)-2H-tetrazol-5-yl]-phenoxymethyl}-thieno[3,2-c]pyridine-7-carboxylic acid (2-hydroxy-ethyl)-amide]	231 nM	544 nM	94 nM
Cn1nnc(-c2cccc(OCc3csc4c(C(=O)NCCO)cnc(N)c34)c2)n1 [Example 33, 4-Amino-3-[3-(2-methyl-2H-tetrazol-5-yl)-phenoxymethyl]-thieno[3,2-c]pyridine-7-carboxylic acid (2-hydroxy-ethyl)-amide]	341 nM	1680 nM	258 nM
Cc1ccc(-c2nnc(-c3ccc(Cl)cc3)o2)cc1OCc1csc2c(C(=O)NCCO)cnc(N)c12 [Example 49, 4-Amino-3-{5-[5-(4-chloro-phenyl)-[1,3,4]oxadiazol-2-yl]-2-methyl-phenoxy-methyl}-thieno[3,2-c]pyridine-7-carboxylic acid (2-hydroxy-ethyl)-amide trifluoroacetic acid salt]	17 nM	5140 nM	920 nM
